# Assay results: publication PMC9598926, “Design and Synthesis of (Z)-5-(Substituted benzylidene)-3-cyclohexyl-2-thioxothiazolidin-4-one Analogues as Anti-Tyrosinase and Antioxidant Compounds: In Vitro and In Silico Insights” (Antioxidants, 2022)
# Columns and labels:
# [1] = tested on: mushroom tyrosinase; assay: Mushroom tyrosinase activity assay (L-tyrosine as substrate); assay type: biochemical; settings: for tyrosinase inhibition relative to kojic acid: fold more than kojic acid; for IC50: mushroom tyrosinase, means ± SEMs of triplicate determinations; for enhancement of tyrosinase inhibitory activity relative to analog 1: versus analog 1
# Experimental: 2.2. […] In brief, 20 µL of an aqueous mushroom tyrosinase solution (1000 units/mL) and 170 µL of a substrate mixture containing 345 µM of L-tyrosine and 17.2 mM of sodium phosphate buffer (pH 6.5) were added to wells of a 96-well microplate. […] Amounts of dopachrome produced were assessed by measuring optical densities at 475 nm using a microplate reader (VersaMax®, Molecular Devices, Sunnyvale, CA, USA). […] Experiments were independently conducted three times.
# [2] = biological target: mushroom tyrosinase; assay: Mushroom tyrosinase inhibition in the presence of L-dopa; assay type: biochemical; settings: L-dopa as substrate
# [3] = ABTS cation radical scavenging activity assay; settings: test sample 100 µM, 2 min in the dark
# Experimental: 2.12. ABTS Cation Radical Scavenging Activity Assay
# The free radical scavenging activities of analogs 1–8 and Trolox were determined using an ABTS radical cation decolorization assay (SEJIN CI Co., Seoul, Korea), as previously described with minor modification. Trolox was used as the positive control. ABTS radicals were produced by adding 10 mL of 7 mM ABTS in distilled water to 10 mL of 2.45 mM aqueous potassium persulfate solution. The mixture was kept in the dark for 12–16 h at RT until the reaction was complete and absorbance had stabilized. The prepared free radical solution was then diluted with methyl alcohol so that the optical density at 734 nm was 0.70 ± 0.02. Test samples (10 µL, final concentration at 100 µM) dissolved in EtOH/DMSO (9:1 v/v) were added to the diluted free radical solution (90 µL) in a 96-well plate. After standing at RT for 2 min in the dark, well absorbances were measured at 734 nm, and ABTS radical scavenging activities were calculated using the following formula:ABTS free radical scavenging activity (%) = (Ac − As) × 100/Ac(2) where Ac indicates the absorbance of the non-treated control, and As indicates the absorbances of test samples. Experiments were conducted independently 3 times.
# The ABTS (2,2′-azino-bis(3-ethylbenzothiazoline-6-sulfonic acid)) cation radical scavenging assay is also commonly used to evaluate antioxidant effects. ABTS is converted to the ABTS radical cation by the transfer of one electron to potassium persulfate. Trolox was used as the positive control, and assays were performed at a test sample (analogs 1–8 and Trolox) concentration of 100 µM. The ABTS radical solution obtained by a reaction of ABTS with potassium persulfate was mixed with test samples and left in the dark for 2 min. ABTS radical scavenging abilities were evaluated by measuring absorbances at 734 nm. […] On the other hand, analog 1 with a 4-hydroxyphenyl group, and analogs 7 and 8 with bromo substituents on the β-phenyl ring weakly scavenged the ABTS radical (16.6–24.8% scavenging). […] Furthermore, the results for ABTS and DPPH radical scavenging activities were similar.
# [4] = ROS scavenging activity assay (DCFH-DA/esterase, SIN-1); settings: SIN–1 10 µM; 5, 10, 20 µM
# Experimental: 2.13. ROS Scavenging Activity Assay
# The ROS scavenging activities of analogs 1–8 and Troloxwere determined as previously described by Ali et al. and Lebel and Bondy. Briefly, 2.5 mM DCFH-DA (2’,7’-dichlorodihydrofluorescein diacetate) (Molecular Probes, Eugene, OR, USA) solution was mixed with esterase (1.5 units/mL) in 50 mM phosphate buffer (pH 7.4), held for 30 min at 37 °C, and keep on ice in the dark until required. Tested compounds (10 µL; final concentrations: 5, 10, and 20 µM) dissolved in DMSO and SIN-1 (3-morpholinosydnonimine) (10 µM) and 180 µL of phosphate buffer in the wells of a black 96-well plate for 30 min. The 50 µL of DCFH-DA-esterase mixture (20 µM) was added. Fluorescence intensities of oxidized DCFH (DCF or 2′,7′-dichlorofluorescein) were measured using a microplate reader (Berthold Advances GmbH & Co., Bad Wildbad, Germany) with excitation and emission wavelengths of 485 and 530 nm, respectively. Trolox was used as the reference control.
# Since it has been reported that reactive oxygen species (ROS) are concerned in the regulation of melanogenesis, we examined the ROS scavenging activities of analogs 1–8 using DCFH-DA (2′,7′-dichlorodihydrofluorescein diacetate) and esterase. Trolox and SIN–1 (3-morpholinosydnonimine) were used as the positive control and a ROS generator, respectively. Hydrolysis of DCFA-DA by esterase generates DCFH (2′,7′-dichlorodihydrofluorescein), which reacts with ROS generated by SIN–1 to produce the fluorescent compound DCF (2′,7′-dichlorofluorescein). Thus, ROS scavenging activities of analogs were assessed by measuring DCF fluorescence. […] Test samples including Trolox were treated at three different concentrations (5, 10, or 20 µM).
# [5] = Peroxynitrite (ONOO−) scavenging activity assay (DHR 123, SIN-1); settings: SIN–1 10 µM; 5, 10, 20 µM
# Experimental: 2.14. Peroxynitrite (ONOO^−) Scavenging Activity Assay
# Peroxynitrite-scavenging activities were determined as described by Kooy et al. with modification. This method monitors the fluorescence of rhodamine 123, which is formed rapidly when non-fluorescent DHR 123 (dihydrorhodamine 123) (Molecular Probes, Eugene, OR, USA) in the presence of peroxynitrite. The rhodamine buffer solution (pH 7.4) included of 50 mM sodium phosphate, 90 mM sodium chloride, 5 mM potassium chloride, and 100 µM DTPA. The final concentration of DHR 123 was 5 µM. In this assay, the buffer solution was prepared prior to use and then stood on ice. Test compounds (10 µL, final concentrations: 5, 10, and 20 µM) dissolved in DMSO and added to 10 µL SIN-1 (10 µM) and 180 µL rhodamine buffer solution in the wells of a black 96-well plate. Fluorescence intensities of oxidized DHR 123 were measured using a fluorescence plate reader (Berthold Advances GmbH & Co., Bad Wildbad, Germany) with an excitation and emission wavelengths of 485 and 535 nm, respectively. Peroxynitrite scavenging activity was calculated after subtracting background fluorescence from final fluorescence intensity. Results are expressed as means ± standard deviation (SD), and L-penicillamine was used as a positive control.
# Several RNS (reactive nitrogen species), including peroxynitrite (ONOO^–) and nitric oxide, are known to be involved in the induction of the melanogenesis. Therefore, we investigated the effects of analogs 1–8 on peroxynitrite scavenging activity using DHR123 (dihydrorhodamine) as a ROS indicator and SIN–1 as an RNS generator. Peroxynitrite generated by SIN–1 oxidizes DHR123 to rhodamine 123, a fluorescent compound. Thus, the effects of analogs on peroxynitrite scavenging ability were determined by measuring rhodamine 123 fluorescence.
tyrosinase inhibition relative to kojic acid [1] [fold],IC50 [1] [µM],enhancement of tyrosinase inhibitory activity relative to analog 1 [1] [fold],IC50 [2] [µM],SMILES,ABTS radical scavenging activity [3] [%],ROS scavenging [4],ROS scavenging compared with Trolox [4],peroxynitrite scavenging compared with penicillamine [5]
5,5.21 ± 0.86,13,39.7 ± 3.43,"O=C1/C(=C/c2ccc(O)c(O)c2)SC(=S)N1C1CCCCC1 [Analog 2, (Z)-3-Cyclohexyl-5-(3,4-dihydroxybenzylidene)-2-thioxothiazolidin-4-one]",81.0,significantly and concentration-dependently scavenged ROS,more potently than Trolox,much more potently than penicillamine
25,1.03 ± 0.14,63,10.6 ± 2.92,"O=C1/C(=C/c2ccc(O)cc2O)SC(=S)N1C1CCCCC1 [Analog 3, (Z)-3-Cyclohexyl-5-(2,4-dihydroxybenzylidene)-2-thioxothiazolidin-4-one]",72.1,significantly and concentration-dependently scavenged ROS,more potently than Trolox,much more potently than penicillamine
